Reference: patent publication US7335686B2, “Method and composition for treating osteoporosis” (Council of Scientific and Industrial Research, priority 2003, dated 2008)

Test system: osteoclast precursors (murine bone marrow cells)
Assay: In vitro osteoclastogenesis assay (M-CSF + RANKL, TRAP staining)
Assay type: cell-based, Balb/c mice
Settings: M-CSF and RANKL, TRAP-positive osteoclasts
Protocol: Mice were sacrificed by cervical dislocation and femora and tibiae were aseptically removed and dissected free of adherent soft tissues. The bone ends were cut, and the marrow cavity was flushed out with medium MEM from one end of the bone using a sterile 21-gauge needle. The bone marrow suspension was carefully agitated with a plastic Pasteur pipette to obtain a single-cell suspension. The cells were washed twice and resuspended (10^6 cells/ml) in αMEM containing 10% FBS. […] After 24 h, nonadherent cells were harvested and layered on a Ficoll-Hypaque gradient. Cells at the gradient interface were collected, washed and resuspended (5×10^5/ml) in αMEM containing 10% FBS. In this study, we called these stromal cell-free, M-CSF-dependent, nonadherent cells as osteoclast precursors. These osteoclast precursors were added to 96-well plates (100 μl/well) containing plastic coverslips. […] Cultures were fed every 2-3 days and after incubation for 6 days osteoclast formation was evaluated by tartrate-resistant acid phosphatase (TRAP) staining. The number of TRAP-positive multinucleated cells (MNCs) containing 3 or more nuclei was scored.
TRAP is preferentially expressed at high levels in osteoclast and is considered, especially in the mouse, to be an osteoclast marker. […] Only those cells that were strongly TRAP-positive (dark red) counted by light microscopy.

| Structure (SMILES) | Effect on RANKL-induced osteoclast formation/differentiation (in words) |
| --- | --- |
| O=C([O-])CC[C@H](NS(=O)(=O)[O-])C(=O)[O-].O=C([O-])CC[C@H](NS(=O)(=O)[O-])C(=O)[O-].[Ca+2].[Ca+2].[Ca+2] [compound 1, L-glutamyl-N-sulphonic acid, Ca salt] | dose dependent inhibition |
| O=C(O)C[C@H](NS(=O)(=O)O)C(=O)O [example 3, L-aspartyl, N-sulfonic acid] | significantly inhibited osteoclast formation |
